Data on six compounds can be found in PubChem BioAssay (NCI).

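In this assay, cells in 96-well plates receive the compound at five concentrations for 48 hours. Endpoints are linearly interpolated between the surrounding concentrations. At the GI50, growth is halved. TGI is the concentration that stops growth completely.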

Some test systems named below: HOP-62 NSCLC; OVCAR-4 ovarian; MOLT-4 leukemia; SK-OV-3 ovarian; SNB-75 CNS; HS 578T breast; HT29 colon; PC-3 prostate; CAKI-1 renal; A549 NSCLC.
Assay in all cases: NCI anticancer screen, dose series, 48 h

With `CC/C=C\C/C=C\C[C@H]1C/C=C2/C(=O)C=C[C@H]2C/C=C\CCC(=O)O1`, the GI50 in the assay on HOP-62 NSCLC is 3.94 µM; in the assay on OVCAR-4 ovarian, 5.22 µM; in the assay with MOLT-4 leukemia, 3.48 µM; with SK-OV-3 ovarian, 10 µM; with SNB-75 CNS, 10.1 µM; in the assay on HS 578T breast, 4.85 µM. In addition, the GI50 is 2.55 µM in the assay with HT29 colon, 3.39 µM in the assay on PC-3 prostate, 3.13 µM in the assay with CAKI-1 renal and 3.96 µM in the assay with A549 NSCLC. Further, the TGI with HOP-62 NSCLC was 10.6 µM; with OVCAR-4 ovarian, greater than 14.3 µM; in the assay with MOLT-4 leukemia, 10.5 µM; in the assay with SK-OV-3 ovarian it was greater than 14.3 µM; with SNB-75 CNS, greater than 14.3 µM; in the assay on HS 578T breast it was greater than 14.3 µM. In addition, the TGI worked out at 6.49 µM with HT29 colon, 12.5 µM in the assay on PC-3 prostate, 8.58 µM with CAKI-1 renal and 12.2 µM in the assay on A549 NSCLC.

As for `COc1cc(NC(N)=NCCC(C)(C)c2ccc(C(F)(F)F)cc2)ncc1C#N`, the GI50 is 1.78 µM with HOP-62 NSCLC; 1.82 µM with OVCAR-4 ovarian; 1.84 µM in the assay with MOLT-4 leukemia; 2.13 µM in the assay with SK-OV-3 ovarian; 1.66 µM with SNB-75 CNS; 2.14 µM in the assay on HS 578T breast. Also, the GI50 in the assay with HT29 colon was 1.62 µM; in the assay on PC-3 prostate, 1.55 µM; in the assay with CAKI-1 renal, 1.42 µM; with A549 NSCLC, 1.61 µM. The TGI in the assay on HOP-62 NSCLC is 3.25 µM; in the assay with OVCAR-4 ovarian, 4.12 µM; in the assay with MOLT-4 leukemia, 5.25 µM; in the assay with SK-OV-3 ovarian it was 4.06 µM; in the assay with SNB-75 CNS, 3.26 µM; with HS 578T breast it was 4.55 µM. Moreover, the TGI with HT29 colon is 3.14 µM; with PC-3 prostate, 3.17 µM; in the assay with CAKI-1 renal, 2.74 µM; with A549 NSCLC it was 3.06 µM.

Regarding `C/C(=N\NC(=O)c1ccncc1)c1ccc(O)cc1O`, the GI50 was 3.93 µM with HOP-62 NSCLC; 2.68 µM in the assay on OVCAR-4 ovarian; 4.14 µM in the assay on MOLT-4 leukemia; 5.34 µM in the assay on SK-OV-3 ovarian; 14.1 µM with SNB-75 CNS; 43.3 µM with HS 578T breast. For the same compound, the GI50 in the assay on HT29 colon was 8.09 µM; in the assay with PC-3 prostate it was 10.9 µM; in the assay with CAKI-1 renal, 2.37 µM; in the assay on A549 NSCLC it was 5.87 µM. Further, the TGI was greater than 100 µM with HOP-62 NSCLC; greater than 100 µM in the assay on OVCAR-4 ovarian; greater than 100 µM in the assay with MOLT-4 leukemia; greater than 100 µM in the assay on SK-OV-3 ovarian; 88.2 µM in the assay with SNB-75 CNS; greater than 100 µM with HS 578T breast. Moreover, the TGI with HT29 colon was greater than 100 µM; with PC-3 prostate, greater than 100 µM; in the assay on CAKI-1 renal, 8 µM; in the assay with A549 NSCLC, greater than 100 µM.

In the case of `COc1cc2c3c(n(CCCCl)c(=O)c2cc1OC)-c1ccc(C#N)cc1C3=O`, the GI50 was 14.7 µM in the assay on HOP-62 NSCLC; 88.7 µM in the assay with OVCAR-4 ovarian; 1.68 µM in the assay on MOLT-4 leukemia; 15.2 µM in the assay on SK-OV-3 ovarian; 4 µM in the assay with SNB-75 CNS; 3.32 µM in the assay with HS 578T breast. The GI50 in the assay on HT29 colon is greater than 100 µM; in the assay with PC-3 prostate it was 32.4 µM; with CAKI-1 renal it was 10.6 µM; with A549 NSCLC, 29.5 µM. The TGI with HOP-62 NSCLC is 30.2 µM; in the assay with OVCAR-4 ovarian it was greater than 100 µM; in the assay with MOLT-4 leukemia, greater than 100 µM; in the assay with SK-OV-3 ovarian it was 44 µM; in the assay with SNB-75 CNS, 15.8 µM; with HS 578T breast it was 21.9 µM. Further, the TGI was greater than 100 µM with HT29 colon, greater than 100 µM with PC-3 prostate, 30.9 µM in the assay with CAKI-1 renal and greater than 100 µM with A549 NSCLC.

For `COc1ccc(CNc2nc(NCc3ccc(OC)cc3)c3n[nH]c(C(C)C)c3n2)cc1`, the GI50 with HOP-62 NSCLC was 10 µM; in the assay with OVCAR-4 ovarian, 1.76 µM; with MOLT-4 leukemia, 3.88 µM; in the assay with SK-OV-3 ovarian it was 8.3 µM; with SNB-75 CNS it was 0.406 µM; in the assay on HS 578T breast it was 2.97 µM. For the same compound, the GI50 was 1.61 µM in the assay on HT29 colon, 4.29 µM in the assay with PC-3 prostate, 6.44 µM in the assay on CAKI-1 renal and 7.25 µM with A549 NSCLC. In addition, the TGI with HOP-62 NSCLC amounted to 24.4 µM; in the assay with OVCAR-4 ovarian, 17.5 µM; with MOLT-4 leukemia it was 14.4 µM; with SK-OV-3 ovarian it was 22.9 µM; with SNB-75 CNS it was 5.32 µM; in the assay on HS 578T breast it was 26 µM. Moreover, the TGI is 10.7 µM with HT29 colon, 23.8 µM in the assay with PC-3 prostate, greater than 100 µM with CAKI-1 renal and greater than 100 µM with A549 NSCLC.

`O=C(CN1CCN(c2ccc(Cl)cc2)CC1)N1CCN(c2nnc(-c3ccccc3)c(-c3ccccc3)n2)CC1`: the GI50 was greater than 100 µM in the assay with HOP-62 NSCLC; 1.75 µM in the assay with OVCAR-4 ovarian; 2.41 µM in the assay on MOLT-4 leukemia; 75.7 µM in the assay on SK-OV-3 ovarian; 7.56 µM in the assay with SNB-75 CNS; 51.6 µM in the assay with HS 578T breast. Also, the GI50 in the assay on HT29 colon is 2.43 µM; with PC-3 prostate it was 3.1 µM; in the assay with CAKI-1 renal it was 4.93 µM; in the assay on A549 NSCLC it was 28.6 µM. In addition, the TGI in the assay on HOP-62 NSCLC, in the assay on OVCAR-4 ovarian, with MOLT-4 leukemia, in the assay with SK-OV-3 ovarian, in the assay on SNB-75 CNS and in the assay on HS 578T breast was greater than 100 µM each time. Moreover, the TGI with HT29 colon is 19.5 µM; with PC-3 prostate it was greater than 100 µM; with CAKI-1 renal it was greater than 100 µM; in the assay with A549 NSCLC it was greater than 100 µM.
